Data: the NIST ThermoML archive (doi:10.1016/j.jct.2014.02.022)

Key:
[1] = mn = molality of the nth substance listed, in mol/kg; details: 101 kPa, Liquid; for viscosity: Capillary tube (Ostwald / Ubbelohde) method; for mass density: Vibrating tube method
[2] = 101 kPa, Liquid; for viscosity: Capillary tube (Ostwald / Ubbelohde) method; for mass density: Vibrating tube method

Cc1ncc(CO)c(CO)c1O.Cl [5-hydroxy-6-methyl-3,4-pyridinedimethanol hydrochloride] + CO
[1]
Details	mass density, 298.15 K [kg/m3]	mass density, 308.15 K [kg/m3]	mass density, 318.15 K [kg/m3]	viscosity, 298.15 K [mPa·s]	viscosity, 308.15 K [mPa·s]	viscosity, 318.15 K [mPa·s]
m1 = 0.0127	789.07	778.65	769.25	0.5562	0.4853	0.4275
m1 = 0.0254	789.94	779.85	770.18	0.5621	0.4955	0.4468
m1 = 0.0382	790.86	780.83	771.13	0.5712	0.5034	0.464

CO [methanol]
[2]
Details	mass density [kg/m3]	viscosity [mPa·s]
298.15 K	786.67	0.543
308.15 K	777.18	0.4708
318.15 K	767.75	0.4194

CO [methanol] + Cc1ncc(CO)c(CO)c1O.Cl
[1], m2 = 0
Details	mass density [kg/m3]	viscosity [mPa·s]
298.15 K	786.67	0.543
308.15 K	777.18	0.4708
318.15 K	767.75	0.4194
